The target in this test is human PCSK9 (Homo sapiens, UniProt Q8NBP7). Put plainly: PCSK9 ligand binding assay (TR-FRET): interference with binding of human PCSK9 to human LDLR. As to conditions: for IC50: Human PCSK9 Alexa Fluor 647 / Human LDLR extracellular domain-Europium Kryptate; for Max % inhibition: efficacy (Amax), 100% = 1 uM unlabeled human PCSK9, 0% = DMSO. Here is the method: Example 10: PCSK9 Ligand Binding Assay
The PCSK9 binding of the compounds of the disclosure were measured using a time resolved fluorescence resonance energy transfer (TR-FRET) assay. This time resolved fluorescence resonance energy transfer (TR-FRET) assay measures the ability of a compound of the present disclosure to interfere with the binding of human PCSK9 to human LDLR, providing measures of both potency (IC50) and efficacy (Amax).
Human PCSK9 Alexa Fluor 647
Human LDLR extracellular domain-Europium Kryptate
Proxi plate-low volume assay plate (PerkinElmer #6008280)
Greiner V-bottom (Greiner BioOne #781280)
Assay Buffer • 20 mM HEPES, pH 7.5 • 150 mM NaCl • 1 mM CaCl2 • 0.01% v/v Tween20 • 0.01% w/v BSA
A master compound plate was prepared in a Greiner V bottom plate by diluting compounds of the disclosure in dimethylsulfoxide to the correct concentration for the desired top concentration based on the desired final concentration: for a 30 uM final concentration the master plate concentration is 1.5 mM (68 uL DMSO+12 uL 10 mM of a compound of the disclosure), for a 10 uM final concentration the master plate concentration is 0.5 mM (76 uL DMSO+4 uL 10 mM of a compound of the disclosure), for a 3 uM final concentration the master plate concentration is 150 uM (69 uL DMSO+1 uL 10 mM of a compound of the disclosure). These solutions were pipetted into columns 1 and 11 of the compound plate. Threefold serial dilutions were generated in columns 2-10 and 12-20 of the compound plate by transferring 10 uL into 20 uL of DMSO. Columns 21 and 22 of the compound plate were negative controls containing DMSO alone.
An intermediate plate was generated in a Greiner V bottom plate by transferring 8 uL from each well of the master plate into a corresponding well containing 92 uL of assay buffer and mixing thoroughly.
A Proxi plate-low volume assay plate was used for the assay. To all wells of the plate was added 10 uL of 16 nM Human PCSK9 Alexa Fluor 647, followed by 5 uL from the intermediate plate. For the positive control wells in columns 23 and 24 of the plate, 5 uL of unlabeled human PCSK9 was added at 4 uM in assay buffer containing 8% DMSO. Following a 30 minute incubation, 5 uL of 4 nM Human LDLR extracellular domain-Europium Kryptate was added and the mixture was incubated for an additional 2 hours.
The TR-FRET signal was measured on an EnVision or PheraStar instrument with a 60 ms delay, 330 nm excitation and 665 nm emission (FRET), and 330 nm excitation and 615 nm (Europium). The FRET ratio (FRET/Europium) was used for calculations.
No inhibition (0%) was observed from the wells containing DMSO (Control) in columns 21 and 22 of the compound plate. Full inhibition (100%) was observed from the wells containing 1 uM human PCSK9 (Control) in columns 23 and 24 of the plate. Data is expressed as percent inhibition: (value—0%)/(100%-0%).
On the technique in general: Time-resolved FRET reads energy transfer from a long-lived donor to a nearby acceptor.

Sequence of human PCSK9 (Q8NBP7 153-692): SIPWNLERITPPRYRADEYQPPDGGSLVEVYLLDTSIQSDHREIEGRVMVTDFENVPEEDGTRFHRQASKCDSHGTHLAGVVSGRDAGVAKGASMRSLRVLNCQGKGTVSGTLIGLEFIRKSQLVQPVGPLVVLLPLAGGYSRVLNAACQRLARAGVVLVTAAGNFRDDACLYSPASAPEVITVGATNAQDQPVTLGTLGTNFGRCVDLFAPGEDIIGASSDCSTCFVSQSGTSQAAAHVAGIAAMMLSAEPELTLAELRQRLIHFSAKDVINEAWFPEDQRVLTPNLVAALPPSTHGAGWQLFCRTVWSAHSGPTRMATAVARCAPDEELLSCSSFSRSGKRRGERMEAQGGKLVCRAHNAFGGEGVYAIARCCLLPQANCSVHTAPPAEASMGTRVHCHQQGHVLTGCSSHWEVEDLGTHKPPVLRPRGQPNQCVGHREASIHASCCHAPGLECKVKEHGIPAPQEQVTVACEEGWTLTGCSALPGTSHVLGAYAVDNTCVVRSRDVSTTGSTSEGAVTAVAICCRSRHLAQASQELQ
Sequence of human PCSK9 (Q8NBP7 31-152 partner limits assumed): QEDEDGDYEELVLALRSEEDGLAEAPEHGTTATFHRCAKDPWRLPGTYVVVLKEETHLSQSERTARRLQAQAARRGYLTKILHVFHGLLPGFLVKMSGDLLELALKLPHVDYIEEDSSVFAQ

As for `C[C@H]1C(=O)N[C@@H](CO)C(=O)N[C@@]2(Cc3ccc(Cl)cc3)CCCN(C2)C(=O)[C@H](CC(F)(F)F)CC(=O)N1Cc1c(F)cc(Cl)cc1Oc1ccc(-c2cnc(CN3CCCC3)n2C)cc1` [Compound 15, (3S, 7S, 10S, 13R)-6-(4-chloro-2-fluoro-6-(4-(1-methyl-2-(pyrrolidin-1-ylmethyl)-1H-imidazol-5-yl)phenoxy)benzyl)-13-(4-chlorobenzyl)-10-(hydroxymethyl)-7-methyl-3-(2,2,2-trifluoroethyl)-1,6,9,12-tetraazabicyclo[11.3.1]heptadecane-2,5,8,11-tetraone], the IC50 (as a rule, the concentration that inhibits the measured activity by half) amounted to 342 pM and the Max % inhibition came to 119.0%.
With `C[C@H]1C(=O)N[C@@H](CO)C(=O)N[C@@]2(Cc3ccc(Cl)cc3)CCCN(C2)C(=O)[C@H]([C@H]2CCc3ncccc32)CC(=O)N1Cc1ccc(Cl)cc1Oc1ccc(-c2cnc(CN(C)C)n2C)cc1.Cl` [Compound 16, (3S, 7S, 10S, 13R)-6-(4-chloro-2-(4-(2-((dimethylamino)methyl)-1-methyl-1H-imidazol-5-yl)phenoxy)benzyl)-13-(4-chlorobenzyl)-3-((R)-6,7-dihydro-5H-cyclopenta[b]pyridin-5-yl)-10-(hydroxymethyl)-7-methyl-1,6,9,12-tetraazabicyclo[11.3.1]heptadecane-2,5,8,11-tetraone], the IC50 came to 529 pM and the Max % inhibition was found to be 97.5%.
`COC[C@@H]1NC(=O)[C@H](C)N(Cc2ncc(Cl)cc2Oc2ccc(-c3cnc(CN(C)C)n3C)cc2)C(=O)C[C@@H](Cc2ccccc2)C(=O)N2CCC[C@@](Cc3ccc(Cl)cc3)(C2)NC1=O` [Compound 17, (3R, 7S, 10S, 13R)-3-benzyl-6-((5-chloro-3-(4-(2-((dimethylamino)methyl)-1-methyl-1H-imidazol-5-yl)phenoxy)pyridin-2-yl)methyl)-13-(4-chlorobenzyl)-10-(methoxymethyl)-7-methyl-1,6,9,12-tetraazabicyclo[11.3.1]heptadecane-2,5,8,11-tetraone]: the IC50 was 327 pM and the Max % inhibition was determined as 102.6%.
The corresponding values for `C[C@H]1C(=O)N[C@@H](CO)C(=O)N(C)[C@@]2(Cc3ccc(Cl)cc3)CCCN(C2)C(=O)[C@H](Cc2ccccn2)CC(=O)N1Cc1ccc(Cl)cc1Oc1ccc(-c2cnc(CN(C)C)n2C)cc1` [Compound 18, (3R,7S,10S,13R)-6-(4-Chloro-2-(4-(2-((dimethylamino)methyl)-1-methyl-1H-imidazol-5-yl)phenoxy)benzyl)-13-(4-chlorobenzyl)-10-(hydroxymethyl)-7,12-dimethyl-3-(pyridin-2-ylmethyl)-1,6,9,12-tetraazabicyclo[11.3.1]heptadecane-2,5,8,11-tetraone] are 549 pM and 104.5%.
Consider `C[C@H]1C(=O)N[C@@H](CO)C(=O)N[C@@]2(Cc3ccc(Cl)cc3)CCCN(C2)C(=O)[C@H](Cc2cccnc2)CC(=O)N1Cc1ccc(Cl)cc1Oc1ccc(-c2cnc(CN(C)C)n2C)cc1.Cl` [Compound 19, (3R,7S,10S,13R)-6-(4-chloro-2-(4-(2-((dimethylamino)methyl)-1-methyl-1H-imidazol-5-yl)phenoxy)benzyl)-13-(4-chlorobenzyl)-10-(hydroxymethyl)-7-methyl-3-(pyridin-3-ylmethyl)-1,6,9,12-tetraazabicyclo[11.3.1]heptadecane-2,5,8,11-tetraone hydrochloride], for which the IC50 came out at 450 pM and the Max % inhibition is given as 105.3%.
`C[C@H]1C(=O)N[C@@H](CO)C(=O)N(C)[C@@]2(Cc3ccc(Cl)cc3)CCCN(C2)C(=O)[C@H](CC(F)(F)F)CC(=O)N1Cc1ccc(Cl)cc1Oc1ccc(-c2cnc(CN(C)C)n2C)cc1` [Compound 20, (3S, 7S, 10S, 13R)-6-(4-chloro-2-(4-(2-((dimethylamino)methyl)-1-methyl-1H-imidazol-5-yl)phenoxy)benzyl)-13-(4-chlorobenzyl)-10-(hydroxymethyl)-7,12-dimethyl-3-(2,2,2-trifluoroethyl)-1,6,9,12-tetraazabicyclo[11.3.1]heptadecane-2,5,8,11-tetraone]: the IC50 turned out to be 187 pM and the Max % inhibition is recorded as 117.5%.
For the molecule `COC[C@@H]1NC(=O)[C@H](C)N(Cc2ccc(Cl)cc2Oc2ccc(-c3cnc(CN(C)C)n3C)cc2)C(=O)C[C@@H](Cc2ccccn2)C(=O)N2CCC[C@@](Cc3ccc(Cl)cc3)(C2)NC1=O` [Compound 21, (3R,7S,10S,13R)-6-(4-Chloro-2-(4-(2-((dimethylamino)methyl)-1-methyl-1H-imidazol-5-yl)phenoxy)benzyl)-13-(4-chlorobenzyl)-10-(methoxymethyl)-7-methyl-3-(pyridin-2-ylmethyl)-1,6,9,12-tetraazabicyclo[11.3.1]heptadecane-2,5,8,11-tetraone], the IC50 was found to be 470 pM and the Max % inhibition was 107.0%.
As to `COC[C@@H]1NC(=O)[C@H](C)N(Cc2c(F)cc(Cl)cc2Oc2ccc(-c3cnc(CN(C)C)n3C)cc2)C(=O)C[C@@H](CC(F)(F)F)C(=O)N2CCC[C@@](Cc3ccc(Cl)cc3)(C2)N(C)C1=O` [Compound 22, (3S,7S,10S,13R)-6-(4-Chloro-2-(4-(2-((dimethylamino)methyl)-1-methyl-1H-imidazol-5-yl)phenoxy)-6-fluorobenzyl)-13-(4-chlorobenzyl)-10-(methoxymethyl)-7,12-dimethyl-3-(2,2,2-trifluoroethyl)-1,6,9,12-tetraazabicyclo[11.3.1]heptadecane-2,5,8,11-tetraone], the IC50 came to 159 pM and the Max % inhibition was 101.9%.
On to `COC[C@@H]1NC(=O)[C@H](C)N(Cc2ccc(Cl)cc2Oc2ccc(-c3cnc(CN(C)C)n3C)cc2)C(=O)C[C@@H](Cc2cccnc2)C(=O)N2CCC[C@@](Cc3ccc(Cl)cc3)(C2)NC1=O.Cl` [Compound 23, (3R, 7S, 10S, 13R)-6-(4-chloro-2-(4-(2-((dimethylamino)methyl)-1-methyl-1H-imidazol-5-yl)phenoxy)benzyl)-13-(4-chlorobenzyl)-10-(methoxymethyl)-7-methyl-3-(pyridin-3-ylmethyl)-1,6,9,12-tetraazabicyclo[11.3.1]heptadecane-2,5,8,11-tetraone], for which the IC50 was 463 pM and the Max % inhibition is reported as 109.3%.
As for `COC[C@@H]1NC(=O)[C@H](C)N(Cc2ccc(Cl)cc2Oc2ccc(-c3cnc(CN(C)C)n3C)nc2)C(=O)C[C@@H](Cc2cccc(C)n2)C(=O)N2CCC[C@@](Cc3ccc(Cl)cc3)(C2)N(C)C1=O` [Compound 24, (3R, 7S, 10S, 13R)-6-(4-chloro-2-((6-(2-((dimethylamino)methyl)-1-methyl-1H-imidazol-5-yl)pyridin-3-yl)oxy)benzyl)-13-(4-chlorobenzyl)-10-(methoxymethyl)-7,12-dimethyl-3-((6-methylpyridin-2-yl)methyl)-1,6,9,12-tetraazabicyclo[11.3.1]heptadecane-2,5,8,11-tetraone], the IC50 stood at 277 pM and the Max % inhibition was found to be 115.7%.
With `C[C@H]1C(=O)N[C@@H](CO)C(=O)N[C@@]2(Cc3ccc(Cl)cc3)CCCN(C2)C(=O)[C@H](Cc2ccccc2)CC(=O)N1Cc1ccc(Cl)c(F)c1Oc1ccc(-c2cnc(CN(C)C)n2C)cc1` [Compound 25, (3R, 7S, 10S, 13R)-3-benzyl-6-(4-chloro-2-(4-(2-((dimethylamino)methyl)-1-methyl-1H-imidazol-5-yl)phenoxy)-3-fluorobenzyl)-13-(4-chlorobenzyl)-10-(hydroxymethyl)-7-methyl-1,6,9,12-tetraazabicyclo[11.3.1]heptadecane-2,5,8,11-tetraone], the IC50 was found to be 438 pM and the Max % inhibition is 100.8%.
For the molecule `CC[C@@H]1CC(=O)N(Cc2ccc(Cl)cc2Oc2ccc(-c3cnc(CN4CCCC4)n3C)cc2)[C@@H](C)C(=O)N[C@@H](CO)C(=O)N[C@@]2(Cc3ccc(Cl)cc3)CCCN(C2)C1=O` [Compound 26, (3R, 7S, 10S, 13R)-6-(4-chloro-2-(4-(1-methyl-2-(pyrrolidin-1-ylmethyl)-1H-imidazol-5-yl)phenoxy)benzyl)-13-(4-chlorobenzyl)-3-ethyl-10-(hydroxymethyl)-7-methyl-1,6,9,12-tetraazabicyclo[11.3.1]heptadecane-2,5,8,11-tetraone], the IC50 turned out to be 480 pM and the Max % inhibition stood at 98.3%.

The record behind these values is US11813306B2, “Cyclic tetramer compounds as proprotein convertase subtilisin/kexin type 9 (PCSK9) inhibitors for the treatment of metabolic disorders” (NOVARTIS AG, priority 2018, dated 2023).
